Source: patent US20130085064A1, “PESTICIDAL MIXTURES CONTAINING ISOXAZOLINE DERIVATIVES AND INSECTICIDE OR NEMATOICIDAL BIOLOGICAL AGENT” (priority 2010, published 2013)
Several values for one entry are separate records, joined by “and”; a condition that tells them apart may be missing. Equal entries are not always repeated. Where two headings read alike, the source gives them in different places.

How the values were obtained:
Type in all cases: in vivo
[1] = test system: Tetranychus urticae (two spotted spider mite); assay: Tetranychus urticae contact/feeding activity on bean plants, adult mortality
Source text: (§1) The action to be expected E for a given active ingredient combination obeys the so-called COLBY formula and can be calculated as follows (COLBY, S.R. “Calculating synergistic and antagonistic responses of herbicide combination”. Weeds, Vol. 15, pages 20-22; 1967):
(§2) ppm=milligrams of active ingredient (=a.i.) per liter of spray mixture X=% action by active ingredient A) using p ppm of active ingredient Y=% action by active ingredient B) using q ppm of active ingredient.
(§3) According to COLBY, the expected (additive) action of active ingredients A)+B) using p+q ppm of active ingredient is
(§4) If the action actually observed (O) is greater than the expected action (E), then the action of the combination is super-additive, i.e. there is a synergistic effect. In mathematical terms the synergism factor SF corresponds to O/E. In the agricultural practice an SF of ≧1.2 indicates significant improvement over the purely complementary addition of activities (expected activity), while an SF of ≦0.9 in the practical application routine signals a loss of activity compared to the expected activity.
Tetranychus Urticae (Two Spotted Spider Mite)
(Contact/Feeding Activity)
Bean plants are infested with mite populations of mixed ages. 1 day after infestation, plants are treated in a spray chamber with diluted test solutions. 1 and 8 days later, samples are checked for adult mortality. 2 replicates per treatment were evaluated.

[2] = test system: Heliothis virescens (tobacco budworm); assay: Heliothis virescens ovo-larvicide, feeding/contact, eggs on filter paper in Petri dishes; details: for AVERAGE DEAD IN % (EGGS) / AVERAGE DEAD IN % (LARVAE): single compound, 7 days; for activity on eggs: egg mortality, 7 days incubation
Source text: as §1, §2, §3, §4
Heliothis Virescens (Tobacco Budworm):
(Ovo-Larvicide, Feeding/Contact)
30-35 fresh eggs (0-24 h old), deposited on filter paper, are placed in Petri dishes on top of a layer of artificial diet and 0.8 ml of diluted test solutions are pipetted onto them. After an incubation period of 7 days, samples are checked for egg and larval mortality. 3 replicates per treatment were evaluated.

[3] = test system: Spodoptera littoralis (Egyptian cotton leaf worm); assay: Spodoptera littoralis larvicide L1, feeding/contact, cotton leaf discs; details: single compound
Source text: as §1, §2, §3, §4
Spodoptera Littoralis (Egyptian Cotton Leaf Worm)
(Larvicide L1, Feeding/Contact)
Cotton leaf discs are placed on agar in Petri dishes and sprayed with test solutions in an application chamber. After drying, the leaf discs are infested with 10 L1 larvae. The samples are checked for mortality 5 days after treatment. 3 replicates per treatment were evaluated. (1 PPM=1 mg l^−1)

[4] = test system: Heliothis virescens (tobacco budworm); assay: Heliothis virescens eggs in 24-well microtiter plate on artificial diet, larval mortality; details: Heliothis virescens, 96 h, read-out: AVERAGE DEAD IN %
Source text: as §1, §2, §3, §4
Heliothis Virescens (Tobacco Budworm)
Eggs (0-24 h old) are placed in 24-well microtiter plate on artificial diet and treated with test solutions (DMSO) by pipetting. After an incubation period of 4 days, samples are checked for larval mortality.

[5] = single compound at 0.025 ppm AI

## CC1(C)[C@H](C(=O)O[C@H](C#N)c2cccc(Oc3ccccc3)c2)[C@@H]1/C=C(\Cl)C(F)(F)F (racemic) [Lambda Cyhalothrin, lambda-cyhalothrin]
[1]; 3.125 ppm alone
  AVERAGE DEAD IN % AFTER 1 DAY: 70%
[1]; 6.25 ppm alone
  AVERAGE DEAD IN % AFTER 1 DAY: 90%
  AVERAGE DEAD IN % AFTER 8 DAYS: 85% and 90%
[1]; 12.5 ppm alone
  AVERAGE DEAD IN % AFTER 1 DAY: 83%
  AVERAGE DEAD IN % AFTER 8 DAYS: 98% and 90%
[1]; Lambda Cyhalothrin alone 3.125 ppm AI
  AVERAGE DEAD IN % AFTER 1 DAY: 25%
[1]; Lambda Cyhalothrin alone 6.25 ppm AI
  AVERAGE DEAD IN % AFTER 1 DAY: 55%
[1]; Lambda Cyhalothrin alone 12.5 ppm AI
  AVERAGE DEAD IN % AFTER 1 DAY: 88%
[2]; 0.05 ppm AI
  AVERAGE DEAD IN % (EGGS): 0%
[2]; 0.05 ppm AI, larvae
  AVERAGE DEAD IN % (LARVAE): 33%
[2]; 0.1 ppm AI
  AVERAGE DEAD IN % (EGGS): 17%
[2]; 0.1 ppm AI, larvae
  AVERAGE DEAD IN % (LARVAE): 100%
[2]; 0.2 ppm AI
  AVERAGE DEAD IN % (EGGS): 50%
[2]; 0.2 ppm AI, larvae
  AVERAGE DEAD IN % (LARVAE): 100%
[3]; 0.05 PPM AI
  AVERAGE DEAD IN % AFTER 5 DAYS: 10% and 20%
[3]; 0.05 ppm AI
  AVERAGE DEAD IN % AFTER 5 DAYS: 20%
[3]; 0.1 ppm AI
  AVERAGE DEAD IN % AFTER 5 DAYS: 37%
[3]; 0.2 ppm AI
  AVERAGE DEAD IN % AFTER 5 DAYS: 57%
[4]; Lambda Cyhalothrin alone 0.00625 ppm AI
  pest or weed control at 0.00625 ppm: 0%
[4]; Lambda Cyhalothrin alone 0.0125 ppm AI
  pest or weed control at 0.0125 ppm: 0%
[4]; Lambda Cyhalothrin alone 0.025 ppm AI
  pest or weed control at 0.025 ppm: 0%
[4]; Lambda Cyhalothrin alone 0.05 ppm AI
  pest or weed control at 0.05 ppm: 0%
[4]; Lambda Cyhalothrin alone 0.1 ppm AI
  pest or weed control at 0.1 ppm: 25%
[4]; Lambda Cyhalothrin alone 0.2 ppm AI
  pest or weed control at 0.2 ppm: 75%
[4]; single compound at 0.00625 ppm AI
  pest or weed control at 0.00625 ppm: 0%
[4]; single compound at 0.0125 ppm AI
  pest or weed control at 0.0125 ppm: 0%
[4]; [5]
  pest or weed control at 0.025 ppm: 0%
[4]; single compound at 0.05 ppm AI
  pest or weed control at 0.05 ppm: 0%
[4]; single compound at 0.1 ppm AI
  pest or weed control at 0.1 ppm: 25%
[4]; single compound at 0.2 ppm AI
  pest or weed control at 0.2 ppm: 75%

## CCOP(=S)(OCC)Oc1nc(Cl)c(Cl)cc1Cl [Chlorpyriphos, chlorpyrifos]
[1]; 50 ppm alone
  AVERAGE DEAD IN % AFTER 8 DAYS: 0%
[1]; 100 ppm alone
  AVERAGE DEAD IN % AFTER 8 DAYS: 20%
[1]; 200 ppm alone
  AVERAGE DEAD IN % AFTER 8 DAYS: 63%
[1]; Chlorpyrifos alone 50 ppm AI
  AVERAGE DEAD IN % AFTER 1 DAY: 0%
[1]; Chlorpyrifos alone 100 ppm AI
  AVERAGE DEAD IN % AFTER 1 DAY: 60%
[1]; Chlorpyrifos alone 200 ppm AI
  AVERAGE DEAD IN % AFTER 1 DAY: 88%
[2]
  activity on eggs: inactive
[2]; 50 ppm AI, larvae
  AVERAGE DEAD IN % (LARVAE): 0%
[2]; 100 ppm AI, larvae
  AVERAGE DEAD IN % (LARVAE): 0%
[2]; 200 ppm AI, larvae
  AVERAGE DEAD IN % (LARVAE): 30%
[3]; 12.5 PPM AI
  AVERAGE DEAD IN % AFTER 5 DAYS: 10% and 7%
[3]; 25 PPM AI
  AVERAGE DEAD IN % AFTER 5 DAYS: 17% and 10%
[3]; 50 PPM AI
  AVERAGE DEAD IN % AFTER 5 DAYS: 30% and 20%
[4]; single compound at 25 ppm AI
  pest or weed control at 25 ppm: 45%
[4]; single compound at 50 ppm AI
  pest or weed control at 50 ppm: 90%
[4]; single compound at 100 ppm AI
  pest or weed control at 100 ppm: 100%
[4]; single compound at 200 ppm AI
  pest or weed control at 200 ppm: 100%
[4]; single compound at 400 ppm AI
  pest or weed control at 400 ppm: 100%
[4]; single compound at 800 ppm AI
  pest or weed control at 800 ppm: 100%

## CNC(=O)c1cc(C#N)cc(C)c1NC(=O)c1cc(Br)nn1-c1ncccc1Cl [Cyantraniliprole, cyantraniliprole]
[1]; 100 ppm alone
  AVERAGE DEAD IN % AFTER 8 DAYS: 35%
[1]; 200 ppm alone
  AVERAGE DEAD IN % AFTER 8 DAYS: 25%
[1]; Cyantraniliprole alone 100 ppm AI
  AVERAGE DEAD IN % AFTER 1 DAY: 0%
[1]; Cyantraniliprole alone 200 ppm AI
  AVERAGE DEAD IN % AFTER 1 DAY: 10%
[2]
  activity on eggs: inactive
[2]; 0.2 ppm AI, larvae
  AVERAGE DEAD IN % (LARVAE): 23%
[2]; 0.4 ppm AI, larvae
  AVERAGE DEAD IN % (LARVAE): 70% and 63%
[2]; 0.8 ppm AI, larvae
  AVERAGE DEAD IN % (LARVAE): 82% and 72%
[3]; 0.0125 PPM AI
  AVERAGE DEAD IN % AFTER 5 DAYS: 23%
[3]; 0.025 PPM AI
  AVERAGE DEAD IN % AFTER 5 DAYS: 27% and 30%
[3]; 0.05 PPM AI
  AVERAGE DEAD IN % AFTER 5 DAYS: 40% and 50%
[4]; Cyantraniliprole alone 0.025 ppm AI
  pest or weed control at 0.025 ppm: 0%
[4]; Cyantraniliprole alone 0.05 ppm AI
  pest or weed control at 0.05 ppm: 0%
[4]; Cyantraniliprole alone 0.1 ppm AI
  pest or weed control at 0.1 ppm: 45%
[4]; Cyantraniliprole alone 0.2 ppm AI
  pest or weed control at 0.2 ppm: 78%
[4]; Cyantraniliprole alone 0.4 ppm AI
  pest or weed control at 0.4 ppm: 90%
[4]; Cyantraniliprole alone 0.8 ppm AI
  pest or weed control at 0.8 ppm: 100%
[4]; [5]
  pest or weed control at 0.025 ppm: 0%
[4]; single compound at 0.05 ppm AI
  pest or weed control at 0.05 ppm: 0%
[4]; single compound at 0.1 ppm AI
  pest or weed control at 0.1 ppm: 45%
[4]; single compound at 0.2 ppm AI
  pest or weed control at 0.2 ppm: 78%
[4]; single compound at 0.4 ppm AI
  pest or weed control at 0.4 ppm: 90%
[4]; single compound at 0.8 ppm AI
  pest or weed control at 0.8 ppm: 100%

## CC1=NNC(=O)N(/N=C/c2cccnc2)C1 [Pymetrozine, pymetrozine]
[1]; 200 ppm alone
  AVERAGE DEAD IN % AFTER 8 DAYS: 0%
[1]; Pymetrozine alone 200 ppm AI
  AVERAGE DEAD IN % AFTER 1 DAY: 5%
[2]
  activity on eggs: inactive
[2]; 100 ppm AI, larvae
  AVERAGE DEAD IN % (LARVAE): 0%
[2]; 200 PPM AI
  AVERAGE DEAD IN % (LARVAE): 37%
[2]; 200 ppm AI, larvae
  AVERAGE DEAD IN % (LARVAE): 40%
[3]; 100 PPM AI
  AVERAGE DEAD IN % AFTER 5 DAYS: 17% and 7%
[3]; 100 ppm AI
  AVERAGE DEAD IN % AFTER 5 DAYS: 7%
[3]; 200 PPM AI
  AVERAGE DEAD IN % AFTER 5 DAYS: 20% and 17%
[3]; 200 ppm AI
  AVERAGE DEAD IN % AFTER 5 DAYS: 17%
[4]; Pymetrozine alone 25 ppm AI
  pest or weed control at 25 ppm: 0%
[4]; Pymetrozine alone 50 ppm AI
  pest or weed control at 50 ppm: 0%
[4]; Pymetrozine alone 100 ppm AI
  pest or weed control at 100 ppm: 0%
[4]; Pymetrozine alone 200 ppm AI
  pest or weed control at 200 ppm: 0%
[4]; Pymetrozine alone 400 ppm AI
  pest or weed control at 400 ppm: 0%
[4]; Pymetrozine alone 800 ppm AI
  pest or weed control at 800 ppm: 0%
[4]; single compound at 25 ppm AI
  pest or weed control at 25 ppm: 0%
[4]; single compound at 50 ppm AI
  pest or weed control at 50 ppm: 0%
[4]; single compound at 100 ppm AI
  pest or weed control at 100 ppm: 0%
[4]; single compound at 200 ppm AI
  pest or weed control at 200 ppm: 0%
[4]; single compound at 400 ppm AI
  pest or weed control at 400 ppm: 0%
[4]; single compound at 800 ppm AI
  pest or weed control at 800 ppm: 0%
